Measured values published in patent US20130231365A1, “Treatment of Inflammation with Certain Alpha-7 Nicotinic Acid Receptor Agonists in Combination with Acetylcholinesterase Inhibitors” (priority 2010, published 2013).

Target: T1, human alpha7 receptor (Homo sapiens, UniProt P36544)
T1 construct: expressed in transfected cells; host or cells: Xenopus laevis oocytes (cDNA injected into the germinal vesicle)
Assay: Acetylcholine-evoked currents in Xenopus oocytes with co-application of the alpha7 agonist
Assay type: cell-based
Protocol: FIG. 1 depicts a protocol for administering acetylcholine and (R)-7-chloro-N-(quinuclidin-3-yl)benzo[b]thiophene-2-carboxamide hydrochloride monohydrate to Xenopus oocytes.
FIG. 2 depicts the results of an assay showing the action of acetylcholine and (R)-7-chloro-N-(quinuclidin-3-yl)benzo[b]thiophene-2-carboxamide hydrochloride monohydrate.
In the study described below currents were measures in Xenopus oocytes. Acetylcholine at 40 micromolar was administered prior to administration of (R)-7-chloro-N-(quinuclidin-3-yl)benzo[b]thiophene-2-carboxamide is (R)-7-chloro-N-(quinuclidin-3-yl)benzo[b]thiophene-2-carboxamide hydrochloride monohydrate at 0.3 nM using the protocol depicted in FIG. 1. Currents were normalized to unity versus the average acetylcholine-evoked current measured during the stabilization period (4 time points).
The EC50 for an alpha7 receptor agonist can be measured using Xenopus oocytes as described previously (Boess et al. 2007 J Pharm Exp Therap 321:716; Methfessel et al., 1986 Pflueg Arch Eur J Physiol 407:577-588; Schnizler et at 2003 Receptors Channels 9:41-48). […] Solutions of test compounds in normal frog Ringer's solution are superfused through the recording chamber for 20 s while the voltage-clamp current is recorded. […] By testing with various concentration of the alpha7 receptor agonist the EC50 for agonism can be determined.

T1 sequence (P36544 23-502): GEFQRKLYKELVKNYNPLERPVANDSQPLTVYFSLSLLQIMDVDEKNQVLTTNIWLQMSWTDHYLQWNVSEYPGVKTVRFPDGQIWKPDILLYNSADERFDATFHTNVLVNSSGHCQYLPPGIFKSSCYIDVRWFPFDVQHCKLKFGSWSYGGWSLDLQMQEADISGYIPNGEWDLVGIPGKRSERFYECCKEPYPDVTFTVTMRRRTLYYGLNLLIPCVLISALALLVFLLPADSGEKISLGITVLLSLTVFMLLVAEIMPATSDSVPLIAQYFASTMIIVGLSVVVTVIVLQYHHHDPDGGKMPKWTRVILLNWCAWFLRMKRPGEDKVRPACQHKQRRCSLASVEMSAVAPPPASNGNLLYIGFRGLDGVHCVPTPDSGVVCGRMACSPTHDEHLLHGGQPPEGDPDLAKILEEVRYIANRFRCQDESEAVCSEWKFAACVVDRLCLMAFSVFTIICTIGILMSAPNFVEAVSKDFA

Cl.O=C(N[C@H]1CN2CCC1CC2)c1cc2cccc(Cl)c2s1 [(R)-7-chloro-N-(quinuclidin-3-yl)benzo[b]thiophene-2-carboxamide hydrochloride monohydrate]
acetylcholine-evoked current, normalized to unity versus the average current of the stabilization period (acetylcholine 40 micromolar given before compound at 0.3 nM, after 8 and 16 minutes incubation, average of 3 cells, FIG. 2): large current increase
effect when administered with acetylcholine (very low concentrations of compound, well below the expected EC50): synergistic effect
